In patent US10858347B2, “Multicyclic compounds and uses thereof” (Karyopharm Therapeutics Inc., priority 2015, dated 2020):
Like-named read-outs stand apart in the source and are kept apart here.

Experiments:
[1] = tested on: Z138 cells; assay: MTT cell proliferation assay, Z138 cells; format: cell-based, human; details: Z138 cells (mature B-cell acute lymphoblastic leukemia cell line), approximately 64-72 hours incubation
Experimental: (§1) The MTT cell proliferation assay was used to study the cytotoxic properties of the compounds. The assay was performed according to the method described by Roche Molecular Biochemicals, with minor modifications. The assay is based on the cleavage of the tetrazolium salt, MTT, in the presence of an electron-coupling reagent. The water-insoluble formazan salt produced must be solubilized in an additional step. Cells grown in a 96-well tissue culture plate were incubated with the MTT solution for approximately 4 hours. After this incubation period, a water-insoluble formazan dye formed. After solubilization, the formazan dye was quantitated using a scanning multi-well spectrophotometer (ELISA reader). […] The cells were seeded at 5,000-10,000 cells in each well of 96-well plate in 100 μL of fresh culture medium and were allowed to attach overnight. The stock solutions of the compounds were diluted in 100 μL cell culture medium to obtain eight concentrations of each test compound, ranging from 1 nM to 30 μM. […] All optical densities were measured at 490 nm using a Vmax Kinetic Microplate Reader (Molecular Devices). In most cases, the assay was performed in duplicate and the results were presented as a mean percent inhibition to the negative control±SE. The following formula was used to calculate the percent of inhibition: Inhibition (%)=(1−(ODo/OD))×100.
(§2) The compounds were tested against MS751, Z138 and 3T3 cells. The MS751 cell line is derived from a metastasis to lymph node of human cervix from a patient diagnosed with squameous cell carcinoma of the cervix. The Z138 cell line is a mature B-cell acute lymphoblastic leukemia cell line derived from a patient with chronic lumphocytic leukemia. 3T3 cells are standard fibroblast cells; they were originally isolated from Swiss mouse embryo tissue.

[2] = tested on: 3T3 cells; assay: MTT cell proliferation assay, 3T3 cells; format: cell-based; details: 3T3 cells (standard fibroblast cells, Swiss mouse embryo), approximately 64-72 hours incubation
Experimental: as §1, §2

[3] = tested on: MS751 cells; assay: MTT cell proliferation assay, MS751 cells; format: cell-based; details: MS751 cells (human cervix squamous cell carcinoma, lymph node metastasis); approximately 64-72 hours incubation
Experimental: as §1, §2

Row | Compound | IC50 ([1]; Homo sapiens, Z-138) [µM] | IC50 ([2]; NIH3T3) [µM] | IC50 [3] [µM] | IC50 ([1]; read-out: Z-138 MTT (IC50; μM)) [µM] | IC50 [2] [µM]
1 | O=C(NCc1cc2cc(-c3ccc(C(=O)N4CCC(F)(F)CC4)cc3)cc(-c3ccc(F)cc3)c2o1)N1Cc2ccncc2C1 [Compound 102, N-((5-(4-(4,4-difluoropiperidine-1-carbonyl)phenyl)-7-(4-fluorophenyl)benzofuran-2-yl)methyl)-1H-pyrrolo[3,4-c]pyridine-2(3H)-carboxamide] | < 0.1 | 0.1 to 5 | < 0.1 |  | 
2 | CN(Cc1cc2cc(-c3ccc(C(=O)N4CCC(F)(F)CC4)cc3)cc(-c3ccc(F)cc3)c2o1)C(=O)N1Cc2ccncc2C1 [Compound 109, N-((5-(4-(4,4-difluoropiperidine-1-carbonyl)phenyl)-7-(4-fluorophenyl)benzofuran-2-yl)methyl)-N-methyl-1H-pyrrolo[3,4-c]pyridine-2(3H)-carboxamide] | < 0.1 | 0.1 to 5 |  |  | 
3 | O=C(NCc1cccnc1)NCc1cc2cc(-c3ccc(C(=O)N4CCC(F)(F)CC4)cc3)cc(-c3ccc(F)cc3)c2o1 [Compound 104, 1-((5-(4-(4,4-difluoropiperidine-1-carbonyl)phenyl)-7-(4-fluorophenyl)benzofuran-2-yl)methyl)-3-(pyridin-3-ylmethyl)urea] | < 0.1 | 0.1 to 5 |  |  | 
4 | Nc1ccc(CNC(=O)NCc2cc3cc(-c4ccc(C(=O)N5CCC(F)(F)CC5)cc4)cc(C(F)(F)F)c3o2)cn1 [Compound 113, 1-((6-aminopyridin-3-yl)methyl)-3-((5-(4-(4,4-difluoropiperidine-1-carbonyl)phenyl)-7-(trifluoromethyl)benzofuran-2-yl)methyl)urea] | > 10 | > 10 |  |  | 
5 | Nc1ccc(C2CN(C(=O)NCc3cc4cc(-c5ccc(C(=O)N6CCC(F)(F)CC6)cc5)cc(-c5ccc(F)cc5)c4o3)C2)cn1 [Compound 103, 3-(6-aminopyridin-3-yl)-N-((5-(4-(4,4-difluoropiperidine-1-carbonyl)phenyl)-7-(4-fluorophenyl)benzofuran-2-yl)methyl)azetidine-1-carboxamide] | < 0.1 | 0.1 to 5 | 0.1 to 5 |  | 
6 | Nc1ccc(CNC(=O)NCc2cc3cc(-c4ccc(C(=O)N5CC(F)(F)C5)cc4)cc(C(F)(F)F)c3o2)cn1 [Compound 117, 1-((6-aminopyridin-3-yl)methyl)-3-((5-(4-(3,3-difluoroazetidine-1-carbonyl)phenyl)-7-(trifluoromethyl)benzofuran-2-yl)methyl)urea] | 5 to 10 | > 10 |  |  | 
7 | O=C(NCCOc1ccc(-c2ccc(C(=O)N3CCC(F)(F)CC3)cc2)cc1-c1ccc(F)cc1)N1Cc2ccncc2C1 [Compound 121, N-(2-((4-(4,4-difluoropiperidine-1-carbonyl)-4″-fluoro-[1,1′:3′,1″-terphenyl]-4′-yl)oxy)ethyl)-1,3-dihydro-2H-pyrrolo[3,4-c]pyridine-2-carboxamide] | < 0.1 | > 10 | < 0.1 |  | 
8 | Nc1ccc(CNC(=O)NCc2cc3cc(-c4ccc(C(=O)N5CCC(F)(F)CC5)cc4)cc(-c4ccc(F)cc4F)c3o2)cn1 [Compound 112, 1-((6-aminopyridin-3-yl)methyl)-3-((7-(2,4-difluorophenyl)-5-(4-(4,4-difluoropiperidine-1-carbonyl)phenyl)benzofuran-2-yl)methyl)urea] | < 0.1 | 0.1 to 5 |  |  | 
9 | O=C(NCc1cc2cc(-c3ccc(C(=O)N4CCC(F)(F)CC4)cc3)cc(C(F)(F)F)c2o1)N1Cc2ccncc2C1 [Compound 105, N-((5-(4-(4,4-difluoropiperidine-1-carbonyl)phenyl)-7-(trifluoromethyl)benzofuran-2-yl)methyl)-1H-pyrrolo[3,4-c]pyridine-2(3H)-carboxamide] | 0.1 to 5 | > 10 |  |  | 
10 | O=C(NCc1ccc(-c2ccc(-c3ccc(C(=O)N4CCC(F)(F)CC4)cc3)cc2-c2ccc(F)cc2)o1)N1Cc2ccncc2C1 [Compound 120, N-((5-(4-(4,4-difluoropiperidine-1-carbonyl)-4″-fluoro-[1,1′:3′,1″-terphenyl]-4′-yl)furan-2-yl)methyl)-1,3-dihydro-2H-pyrrolo[3,4-c]pyridine-2-carboxamide] | < 0.1 | > 10 |  |  | 
11 | O=C(NCCc1cc2cc(-c3ccc(C(=O)N4CCC(F)(F)CC4)cc3)cc(-c3ccc(F)cc3)c2o1)N1Cc2ccncc2C1 [Compound 107, N-(2-(5-(4-(4,4-difluoropiperidine-1-carbonyl)phenyl)-7-(4-fluorophenyl)benzofuran-2-yl)ethyl)-1H-pyrrolo[3,4-c]pyridine-2(3H)-carboxamide] | < 0.1 | 0.1 to 5 | < 0.1 |  | 
12 | Nc1ccc(CNC(=O)NCC2Cc3cc(-c4ccc(C(=O)N5CCC(F)(F)CC5)cc4)cc(-c4ccc(F)cc4)c3O2)cn1 (stereo not shown) [Compound 123, 1-((6-aminopyridin-3-yl)methyl)-3-((5-(4-(4,4-difluoropiperidine-1-carbonyl)phenyl)-7-(4-fluorophenyl)-2,3-dihydrobenzofuran-2-yl)methyl)urea] | < 0.1 | 0.1 to 5 |  |  | 
13 | 1-((6-aminopyridin- 3-yl)methyl)-3-(2-((4- (4,4-difluoropiperidine- 1-carbonyl)-4″- fluoro-[1,1′:3′,1″- terphenyl]-4′- yl)oxy)ethyl)urea [Compound 124] |  |  |  | < 0.1 | > 10
14 | O=C(NCc1cc2cc(-c3ccc(C(=O)N4CCC(F)(F)CC4)cn3)cc(-c3ccc(F)cc3)c2o1)N1Cc2ccncc2C1 [Compound 110, N-((5-(5-(4,4-difluoropiperidine-1-carbonyl)pyridin-2-yl)-7-(4-fluorophenyl)benzofuran-2-yl)methyl)-1H-pyrrolo[3,4-c]pyridine-2(3H)-carboxamide] | < 0.1 | < 0.1 |  |  | 
15 | Nc1ccc(CNC(=O)NCc2ccc(-c3ccc(-c4ccc(C(=O)N5CCC(F)(F)CC5)cc4)cc3-c3ccc(F)cc3)o2)cn1 [Compound 125, 1-((6-aminopyridin-3-yl)methyl)-3-((5-(3-(4-fluorophenyl)-4′-(4,4-difluoropiperidine-1-carbonyl)biphenyl-4-yl)furan-2-yl)methyl)urea] | < 0.1 | > 10 |  |  | 
16 | O=C(NCc1cc2cc(-c3ccc(C(=O)N4CCC(F)(F)CC4)cc3)cc(-c3ccc(F)cc3)c2s1)N1Cc2ccncc2C1 [Compound 111, N-((5-(4-(4,4-difluoropiperidine-1-carbonyl)phenyl)-7-(4-fluorophenyl)benzo[b]thiophen-2-yl)methyl)-1H-pyrrolo[3,4-c]pyridine-2(3H)-carboxamide] | < 0.1 | > 10 |  |  | 
17 | Nc1cc2c(cn1)CN(C(=O)NCc1cc3cc(-c4ccc(C(=O)N5CCC(F)(F)CC5)cc4)cc(-c4ccc(F)cc4)c3o1)C2 [Compound 115, 6-amino-N-((5-(4-(4,4-difluoropiperidine-1-carbonyl)phenyl)-7-(4-fluorophenyl)benzofuran-2-yl)methyl)-1H-pyrrolo[3,4-c]pyridine-2(3H)-carboxamide] | < 0.1 | 0.1 to 5 |  |  | 
18 | O=C(NCc1cc2cc(-c3ccc(C(=O)N4CC(F)(F)C4)cc3)cc(C(F)(F)F)c2o1)N1Cc2ccncc2C1 [Compound 106, N-((5-(4-(3,3-difluoroazetidine-1-carbonyl)phenyl)-7-(trifluoromethyl)benzofuran-2-yl)methyl)-1H-pyrrolo[3,4-c]pyridine-2(3H)-carboxamide] | > 10 | > 10 |  |  | 
19 | Nc1ccc(CNC(=O)NCc2cc3cc(-c4ccc(C(=O)N5CCC(F)(F)CC5)cc4)cc(-c4ccc(F)cc4)c3s2)cn1 [Compound 114, 1-((6-aminopyridin-3-yl)methyl)-3-((5-(4-(4,4-difluoropiperidine-1-carbonyl)phenyl)-7-(4-fluorophenyl)benzo[b]thiophen-2-yl)methyl)urea] | 5 to 10 | > 10 |  |  | 
20 | O=C(NCC1Cc2cc(-c3ccc(C(=O)N4CCC(F)(F)CC4)cc3)cc(-c3ccc(F)cc3)c2O1)N1Cc2ccncc2C1 (stereo not shown) [Compound 122, N-((5-(4-(4,4-difluoropiperidine-1-carbonyl)phenyl)-7-(4-fluorophenyl)-2,3-dihydrobenzofuran-2-yl)methyl)-1,3-dihydro-2H-pyrrolo [3,4-c]pyridine-2-carboxamide] | < 0.1 | < 0.1 |  |  | 
21 | Nc1ccc(CNC(=O)NCc2cc3cc(-c4ccc(C(=O)N5CCC(F)(F)CC5)cn4)cc(-c4ccc(F)cc4)c3o2)cn1 [Compound 116, 1-((6-aminopyridin-3-yl)methyl)-3-((5-(5-(4,4-difluoropiperidine-1-carbonyl)pyridin-2-yl)-7-(4-fluorophenyl)benzofuran-2-yl)methyl)urea] | < 0.1 | 0.1 to 5 |  |  | 
